The conditions of series [1]: rats, oral; cited from earlier work.
The conditions of series [2]: cited from earlier work.
The next series deals with SH-SY5Y cell line. The following applies: cited from earlier work.
The conditions of series [3]: cited from earlier work. The source holds these as a separate data set.
For another series, the system named is SH-SY5Y cells. Kind of series: Oxidized CoQ10 levels in PABA-induced CoQ10 deficient neuronal cells. Type of series: cell-based. The following applies: 1 mM PABA for 5 days. An excerpt: An established model of CoQ10 deficiency was used to study the effects of BPM31510 in vitro. […] A neuronal cell model of CoQ10 deficiency by treatment of the neuronal SH-SY5Y cell line with PABA has previously been established. In this model, a significant reduction of cellular ATP production and increase in mitochondrial reactive oxygen species (ROS) was observed. […] Therefore, this PABA-induced CoQ10 deficient in vitro model was used to evaluate the potency of BPM31510 to restore ATP levels and reduce mitochondrial ROS.
SH-SY5Y cells were pretreated for 5 days with 1 mM PABA or vehicle in all experiments.

A further series deals with T1, COQ2 (Homo sapiens, UniProt Q96H96).
T1 construct: host or cells: HL-60 cells (endogenous enzyme)
T1 sequence (Q96H96 35-371): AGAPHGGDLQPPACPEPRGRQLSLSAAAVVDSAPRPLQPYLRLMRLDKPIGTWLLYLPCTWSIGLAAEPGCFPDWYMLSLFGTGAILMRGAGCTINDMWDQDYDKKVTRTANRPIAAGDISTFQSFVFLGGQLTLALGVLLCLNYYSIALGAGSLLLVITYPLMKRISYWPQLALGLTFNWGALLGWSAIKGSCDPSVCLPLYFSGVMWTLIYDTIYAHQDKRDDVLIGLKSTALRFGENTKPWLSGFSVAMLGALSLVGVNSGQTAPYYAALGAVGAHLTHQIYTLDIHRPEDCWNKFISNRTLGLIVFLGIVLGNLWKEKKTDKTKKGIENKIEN
The following applies: HL-60 cells; cited from earlier work.

Setting [4] is: young rats, after four days of dosing.
The mark [5] stands for this setting: CoQ10 supplementation 2.5 μM and 5 μM.

Here are results for two compounds from patent publication US20250262169A1, “METHODS OF TREATING COENZYME Q10 DEFICIENCY” (BPGbio, Inc., priority 2024, published 2025).

A value given as a limit tells only on which side of the number the result lay.

`COC1=C(OC)C(=O)C(C/C=C(\C)CC/C=C(\C)CC/C=C(\C)CC/C=C(\C)CC/C=C(\C)CC/C=C(\C)CC/C=C(\C)CC/C=C(\C)CC/C=C(\C)CCC=C(C)C)=C(C)C1=O` [CoQ10, Coenzyme Q10]: the “orally-administered CoQ10 absorbed” value in series [1] is on record as 2-3%. Further, in series [2] (1-2 month old animals, oral administration), the “concentration of CoQ10 in brain” value was “did not increase”. Besides, in series [2] (12 month old and 24 month old rats, oxidized and reduced forms), the “CoQ10 in cerebral tissues” value is reported as “accumulation of CoQ10 in cerebral tissues”. Besides, in series [2] (setting [4]), the “concentration in heart or kidney” value is listed as “no increase”; the “plasma, liver, and spleen concentrations” value was “increased”. Also, in the series on SH-SY5Y cell line (setting [5]), the “electron transport chain (ETC) activities” value was “unable to fully restore” and the mitochondrial oxidative stress result is given as “effective at significantly reducing”. In addition, in the series on SH-SY5Y cell line (PABA treated SH-SY5Y), the “exogenous CoQ10 required to restore ETC activities” value is above 10 µM. In the series with SH-SY5Y cell line (higher concentrations (>10 μM), reports in literature), the “correction of ATP and ROS levels” value was “not complete”. In series [3], the solubility in water result is “insoluble in water”.

As to `Nc1ccc(C(=O)O)cc1` [PABA, Para-aminobenzoic acid], the “reduction of oxidized CoQ10 levels” value with SH-SY5Y cells is recorded as “approximately 90%”. Moreover, on COQ2, the COQ2 activity entry was “inhibit COQ2 activity”.
